Results reported in patent US9765018B2, “IDO inhibitors” (BRISTOL-MYERS SQUIBB COMPANY, priority 2013, dated 2017).

Assays:
IDO [1] = target: T1, IDO (Homo sapiens (Human), UniProt P14902); test: Kynurenine assay in IFN-γ-stimulated Hela cells; assay type: cell-based; conditions: 20 h, read-out: Hela Kyurenine (IC50)
Outline: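 Hela cells adhered 5-6 h, then received inhibitor (top dose 30 μM, 3-fold dilutions to 1.5 nM) plus 100 ng/mL human IFN-γ to induce IDO, 20 h at 37° C. TCA added, 30 min at 50° C hydrolyses N-formylkynurenine to kynurenine. Supernatant mixed with Ehrlich reagent, 10 min RT, absorbance 490 nm.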

Human IDO1 = Human IDO1 (Homo sapiens (Human), UniProt P14902); test: IDO Kynurenine Assay with Human IDO1/HEK293 Cells; assay type: cell-based; conditions: HEK293 cells with human IDO1; read-out: HEK human IDO-1 (IC50)
Experimental: IDO Kynurenine Assay with Human IDO1/HEK293 Cells
Human IDO1/HEK293 cells were seeded at 10,000 cells per 50 uL per well with RPMI/phenol red free media contains 10% FBS in a 384-well black wall clear bottom tissue culture plate (Matrix Technologies LLC) 125 nL of certain concentration of compound was then added to each well using ECHO liquid handling systems. The cells were incubated for 20 hours in 37° C. incubator with 5% CO2.
The compound treatments were stopped by adding Trichloroacetic Acid (Sigma-Aldrich) to a final concentration at 0.2%. The cell plate was further incubated at 50° C. for 30 minute. The equal volume supernatant (20 uL) and 0.2% (w/v) Ehrlich reagent (4-dimethylaminobenzaldehyde, Sigma-Aldrich) in glacial acetic acid were mixed in a new clear bottom 384-well plate. This plate was then incubated at room temperature for 30 minute. The absorbance at 490 nm was measured on Envision plate reader.

IDO [2] = target: T1, IDO; test: LLE_IDO_ABS_DR (IDO assay, method not described)

T1 sequence (P14902 whole entry): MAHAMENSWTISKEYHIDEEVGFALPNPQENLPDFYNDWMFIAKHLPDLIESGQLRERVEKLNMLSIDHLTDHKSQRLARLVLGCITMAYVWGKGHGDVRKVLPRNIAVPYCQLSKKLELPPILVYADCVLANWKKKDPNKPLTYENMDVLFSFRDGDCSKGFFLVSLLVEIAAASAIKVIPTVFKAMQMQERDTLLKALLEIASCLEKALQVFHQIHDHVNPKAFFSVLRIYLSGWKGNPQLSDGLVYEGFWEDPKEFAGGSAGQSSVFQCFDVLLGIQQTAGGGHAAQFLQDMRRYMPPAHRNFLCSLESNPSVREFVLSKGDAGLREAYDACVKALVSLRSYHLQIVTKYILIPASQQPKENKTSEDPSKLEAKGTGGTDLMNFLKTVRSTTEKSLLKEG
Chain of Human IDO1 (P14902 whole entry): as above

Structure (SMILES)	IC50 (IDO [1]) [µM]	IC50 (Human IDO1) [µM]	IC50 (IDO [2]) [µM]
Cc1cccc(NC(=O)Nc2cc(-c3cccc(C(=O)O)c3)ccc2Oc2ccccc2C(C)(C)C)c1 [Example 225, 4′-(2-tert-butylphenoxy)-3′-(3-m-tolylureido) biphenyl-3-carboxylic acid]	0.57	7.65	2.9
COc1ccc(-c2ccc(Oc3ccccc3C3CC3)c(NC(=O)Nc3ccc(C)cc3)c2)cc1C(=O)O [Example 127, 4′-(2-cyclopropylphenoxy)-4-methoxy-3′-(3-p-tolylureido)biphenyl-3-carboxylic acid]	0.49	3.29	2.43
COc1ccc(-c2ccc(Oc3cccc4c3CCC4)c(NC(=O)Nc3ccc(C)cc3)c2)cc1C(=O)O [Example 145, 4′-(2,3-dihydro-1H-inden-4-yloxy)-4-methoxy-3′-(3-p-tolylureido)biphenyl-3-carboxylic acid]	0.28	1.59	0.79
CCCc1ccccc1Oc1ccc(-c2ccc(OC)c(C(=O)O)c2)cc1NC(=O)Nc1ccc(C)cc1 [Example 77, 4-methoxy-4′-(2-propylphenoxy)-3′-(3-p-tolylureido)biphenyl-3-carboxylic acid]	0.33	2.33	0.78
Cc1ccc(NC(=O)Nc2cc(-c3ccccc3C(=O)O)ccc2Oc2ccccc2C(C)(C)C)cc1 [Example 2, 4′-(2-tert-Butylphenoxy)-3′-(3-p-tolylureido)biphenyl-2-carboxylic acid]	0.06	0.56	0.07
COc1ccc(-c2ccc(Oc3cccc4c3CCCC4)c(NC(=O)Nc3cccc(C)c3)c2)cc1C(=O)O [Example 116, 4-methoxy-4′-(5,6,7,8-tetrahydronaphthalen-1-yloxy)-3′-(3-m-tolylureido)biphenyl-3-carboxylic acid]	0.1	0.79	0.78
COc1ccc(-c2ccc(Oc3cccc4c3CCCC4)c(NC(=O)Nc3ccccc3)c2)cc1C(=O)O [Example 151, 4-methoxy-3′-(3-phenylureido)-4′-(5,6,7,8-tetrahydronaphthalen-1-yloxy)biphenyl-3-carboxylic acid]	0.06	1.12	0.3
COc1ccc(-c2ccc(Oc3cccc4c3CCCC4)c(NC(=O)Nc3ccc(C)c(C)c3)c2)cc1C(=O)O [Example 153, 3′-(3-(3,4-dimethylphenyl)ureido)-4-methoxy-4′-(5,6,7,8-tetrahydronaphthalen-1-yloxy)biphenyl-3-carboxylic acid]	0.04	0.92	0.53
COc1ccc(-c2ccc(Oc3ccc4c(c3)CCCC4)c(NC(=O)Nc3ccc(C)cc3)c2)cc1C(=O)O [Example 148, 4-methoxy-4′-(5,6,7,8-tetrahydronaphthalen-2-yloxy)-3′-(3-p-tolylureido)biphenyl-3-carboxylic acid]	0.26	2.42	0.49
COc1ccc(-c2ccc(Oc3ccccc3C(C)(C)C)c(NC(=O)Nc3ccccc3C(F)(F)F)c2)cc1C(=O)O [Example 46, 4′-(2-tert-butylphenoxy)-4-methoxy-3′-(3-(2-(trifluoromethyl)phenyl)ureido)biphenyl-3-carboxylic acid]	0.05	0.54	0.32
Cc1ccccc1NC(=O)Nc1cc(-c2cc(F)cc(C(=O)O)c2)ccc1Oc1ccccc1C(C)(C)C [Example 254, 4′-(2-tert-butylphenoxy)-5-fluoro-3′-(3-o-tolylureido) biphenyl-3-carboxylic acid]	0.35	1.62	1.16

Now from value to compound:

IC50 (IDO [1]) [µM]	IC50 (Human IDO1) [µM]	IC50 (IDO [2]) [µM]	Structure (SMILES)
0.05	0.24	0.2	COc1ccc(-c2ccc(Oc3cccc4c3CCCC4)c(NC(=O)Nc3ccccc3C)c2)cc1C(=O)O [Example 115, 4-methoxy-4′-(5,6,7,8-tetrahydronaphthalen-1-yloxy)-3′-(3-o-tolylureido)biphenyl-3-carboxylic acid]
0.02	0.07	0.14	C#CCOc1cccc(Oc2ccc(-c3ccc(OC)c(C(=O)O)c3)cc2NC(=O)Nc2ccccc2Cl)c1C [Example 136, 3′-(3-(2-chlorophenyl)ureido)-4-methoxy-4′-(2-methyl-3-(prop-2-ynyloxy)phenoxy)biphenyl-3-carboxylic acid]
0.02	0.12	0.1	COc1ccc(-c2ccc(Oc3cccc4c3CCCC4)c(NC(=O)Nc3ccccc3Cl)c2)cc1C(=O)O [Example 114, 3′-(3-(2-chlorophenyl)ureido)-4-methoxy-4′-(5,6,7,8-tetrahydronaphthalen-1-yloxy)biphenyl-3-carboxylic acid]
0.08	0.26	0.43	COc1ccc(-c2ccc(Oc3cccc(C)c3C)c(NC(=O)Nc3ccccc3Cl)c2)cc1C(=O)O [Example 120, 3′-(3-(2-chlorophenyl)ureido)-4′-(2,3-dimethylphenoxy)-4-methoxybiphenyl-3-carboxylic acid]
0.07	0.29	0.3	COc1ccc(-c2ccc(Oc3cccc4ccccc34)c(NC(=O)Nc3ccccc3C)c2)cc1C(=O)O [Example 129, 4-methoxy-4′-(naphthalen-1-yloxy)-3′-(3-o-tolylureido)biphenyl-3-carboxylic acid]
0.08	0.66	0.25	COc1ccc(-c2ccc(Oc3cccc(C)c3C)c(NC(=O)Nc3cccc(C)c3)c2)cc1C(=O)O [Example 122, 4′-(2,3-dimethylphenoxy)-4-methoxy-3′-(3-m-tolylureido)biphenyl-3-carboxylic acid]
0.09	1.31	0.47	COc1ccc(-c2ccc(Oc3ccccc3C(C)(C)C)c(NC(=O)Nc3ccc(Cl)cc3Cl)c2)cc1C(=O)O [Example 103, 4′-(2-(tert-butyl)phenoxy)-3′-(3-(2,4-dichlorophenyl)ureido)-4-methoxy-[1,1′-biphenyl]-3-carboxylic acid]
0.84	2.97	1.57	COc1ccc(-c2ccc(Oc3ccccc3C)c(NC(=O)Nc3ccc(C)cc3)c2)cc1C(=O)O [Example 73, 4-methoxy-4′-(o-tolyloxy)-3′-(3-p-tolylureido)biphenyl-3-carboxylic acid]
0.06	0.42	0.13	COc1ccc(-c2ccc(Oc3ccccc3C(C)(C)C)c(NC(=O)Nc3ccccc3F)c2)cc1C(=O)O [Example 79, 4′-(2-(tert-butyl)phenoxy)-3′-(3-(2-fluorophenyl)ureido)-4-methoxy-[1,1′-biphenyl]-3-carboxylic acid]
0.04	0.38	0.16	COc1ccc(-c2ccc(Oc3cccc4c3CCC4)c(NC(=O)Nc3ccccc3Cl)c2)cc1C(=O)O [Example 142, 3′-(3-(2-chlorophenyl)ureido)-4′-(2,3-dihydro-1H-inden-4-yloxy)-4-methoxybiphenyl-3-carboxylic acid]
0.16	0.77	0.77	COc1ccc(-c2ccc(Oc3cccc4ccccc34)c(NC(=O)Nc3ccc(C)cc3)c2)cc1C(=O)O [Example 131, 4-methoxy-4′-(naphthalen-1-yloxy)-3′-(3-p-tolylureido)biphenyl-3-carboxylic acid]
